This experiment concerns Abutilon theophrasti. Briefly: Greenhouse post-emergence herbicidal activity (plant damage, 0 to 100% scale vs untreated control). In kind it is in vivo. The settings on record: 0.796 g ai/ha, ABUTH, AMS + NIS added, read-out: Solo Flumiclorac (0.796 g ai/ha) % activity.

Like-named read-outs stand apart in the source and are kept apart here.

Source text: For the post-emergence treatment, the test plants were first grown to 3.5 to 4.5 inch (8.9 to 11.4 cm) tall, and only then treated. Here, the herbicidal compositions were suspended or emulsified in water as distribution medium and sprayed using finely distributing nozzles.
Flumiclorac (commercial product name: Resource) was used as an emulsifiable concentrate having an active ingredient concentration of 100 g/l. Glufosinate (commercial product name: Liberty) was used as an aqueous soluble liquid of glufosinate ammonium having an active ingredient concentration of 280 g/l. Adjuvants of ammonium sulfate (AMS) and non-ionic surfactant (NIS) were added in all treatments. AMS and NIS were AMS Liquid and Induce at rates of 1680 g/ha and 0.25% (v/v), respectively.
The test period extended over 21 days after treatment (DAT). During this time, the plants were tended and their response to the individual treatments was evaluated.
The evaluation for the damage caused by the chemical compositions was carried out using a scale from 0 to 100%, compared to the untreated control plants. Here, 0 means no damage and 100 means complete destruction of the plants.
E = X + Y - (X.Y/100) • where X = effect in percent using flumiclorac at an application rate a; • Y = effect in percent using glufosinate at application rate b; • E = expected effect (in %) of flumiclorac plus glufosinate at application rates a + b.
The value E corresponds to the effect (plant damage or injury) which is to be expected if the activity of the individual compounds is just additive.

Regarding `CCCCCOC(=O)COc1cc(N2C(=O)C3=C(CCCC3)C2=O)c(F)cc1Cl` [Flumiclorac, flumiclorac-pentyl], the inhibition at 0.796 g/ha was determined as 53% (168 h, 7 DAT); 45% (336 h, 14 DAT); 41% (504 h, 21 DAT).

The record behind these values is patent US20230054749A1, “Herbicide Combinations Comprising Glufosinate and Flumiclorac-pentyl” (BASF SE, priority 2020, published 2023).
